Assay results as given in patent US20250295634A1, “USE OF ANTIANDROGENS TO TREAT SEPSIS” (Rhode Island Hospital, priority 2024, published 2025).
Where two headings read alike, the source gives them in different places.

Tests used:
[1] = system: angiotensin converting enzyme 2 (ACE2); details: in men; cited from earlier work
COVID-19 [2] = details: men with diagnosis of AGA, outpatient setting; cited from earlier work
[3] = in vivo; cited from earlier work
TMPRSS2 [4] = details: in men; cited from earlier work
COVID-19 [5] = details: cited from earlier work
COVID-19 [6] = details: inventors' reading of Welén et al.; the authors report no evidence of benefit; cited from earlier work
COVID-19 [7] = details: cited from earlier work; remark: listed apart in the source
TMPRSS2 [8] = details: cited from earlier work
COVID-19 [9] = details: cited from earlier work; remark: listed apart in the source
COVID-19 [10] = details: single case; case report later retracted; cited from earlier work
COVID-19 [11] = assay: Clinical trial of proxalutamide in hospitalized COVID-19 patients in Brazil (NCT04728802); format: in vivo, human; details: initiated in patients that don't require supplemental O2
androgen receptor = target: T1, androgen receptor (Homo sapiens, UniProt P10275); details: clinical evidence; cited from earlier work
T1 sequence (P10275 1-920): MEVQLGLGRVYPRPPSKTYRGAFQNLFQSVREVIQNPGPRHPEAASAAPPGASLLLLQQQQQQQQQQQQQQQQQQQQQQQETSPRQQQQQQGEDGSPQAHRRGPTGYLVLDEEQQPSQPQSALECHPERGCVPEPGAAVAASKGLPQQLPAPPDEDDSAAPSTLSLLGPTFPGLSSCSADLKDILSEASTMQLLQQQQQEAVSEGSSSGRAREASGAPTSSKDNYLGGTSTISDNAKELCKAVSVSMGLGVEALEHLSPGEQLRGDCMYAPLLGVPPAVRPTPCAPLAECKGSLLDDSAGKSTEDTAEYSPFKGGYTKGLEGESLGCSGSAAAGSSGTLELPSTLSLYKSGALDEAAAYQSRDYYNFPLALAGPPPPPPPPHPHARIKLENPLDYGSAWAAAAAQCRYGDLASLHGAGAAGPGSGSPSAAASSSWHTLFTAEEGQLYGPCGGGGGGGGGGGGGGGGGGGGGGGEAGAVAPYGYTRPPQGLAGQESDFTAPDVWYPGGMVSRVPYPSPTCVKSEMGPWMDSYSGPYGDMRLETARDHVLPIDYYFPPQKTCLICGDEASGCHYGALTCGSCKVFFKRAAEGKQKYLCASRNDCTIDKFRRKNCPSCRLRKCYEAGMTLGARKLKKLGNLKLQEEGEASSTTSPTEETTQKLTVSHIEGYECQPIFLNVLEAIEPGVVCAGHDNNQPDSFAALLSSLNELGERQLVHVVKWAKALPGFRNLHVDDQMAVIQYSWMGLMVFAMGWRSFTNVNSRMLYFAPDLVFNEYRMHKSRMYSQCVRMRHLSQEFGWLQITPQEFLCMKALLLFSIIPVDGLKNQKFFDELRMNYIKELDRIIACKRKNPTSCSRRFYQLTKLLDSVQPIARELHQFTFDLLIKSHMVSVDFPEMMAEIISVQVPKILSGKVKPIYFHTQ

COVID-19 [12] = details: men, proxalutamide 200 mg for up to seven days; cited from earlier work
COVID-19 [13] = details: patients with severe lung involvement; cited from earlier work
ACE2 = details: cited from earlier work
COVID-19 [14] = details: at five days of therapy; cited from earlier work
sepsis = details: fecal peritonitis model; cited from earlier work

Compound: C[C@]12C=CC(=O)N[C@@H]1CC[C@@H]1[C@@H]2CC[C@]2(C)[C@@H](C(=O)Nc3cc(C(F)(F)F)ccc3C(F)(F)F)CC[C@@H]12 [dutasteride]
- expression of ACE2 [1]: decrease the expression
- symptomatic COVID-19 disease (COVID-19 [2]): less symptomatic COVID-19 disease
- half-life [3]: five
- expression of TMPRSS2 (TMPRSS2 [4]): decrease the expression

Compound: C[C@]12CCC(=O)C=C1C=C[C@@H]1[C@@H]2CC[C@@]2(C)[C@H]1CC[C@@]2(O)CCC(=O)O [Potassium canrenoate]
- all-cause mortality (COVID-19 [5]; severe COVID patients): proven to reduce all-cause mortality

Compound: C[C@]12CCC(=O)C=C1C=C[C@@H]1[C@@H]2CC[C@@]2(C)[C@H]1CC[C@@]21CCC(=O)O1 [Canrenone]
- fatalities (COVID-19 [5]; intensive care observational series of cases with hypertension or hypokalemia): associated with reduced fatalities

Compound: CNC(=O)c1ccc(N2C(=S)N(c3ccc(C#N)c(C(F)(F)F)c3)C(=O)C2(C)C)cc1F [enzalutamide]
- effect on hospitalized COVID-19 patients (COVID-19 [6]): positive effects
- half-life [3]: 140 h
- mortality, subgroup analysis (COVID-19 [7]; human, in vivo): significantly reduce mortality
- TMPRSS2 regulation (TMPRSS2 [8]): significantly downregulated TMPRSS2

Compound: CC1(C)C(=O)N(c2ccc(C#N)c(C(F)(F)F)c2F)C(=S)N1c1ccc(CCCc2ncco2)nc1 [proxalutamide]
- mortality in COVID-19 patients (COVID-19 [9]; data from Brazil, both arms using corticosteroids): dramatic impact of proxalutamide in reducing mortality
- lung opacities compared to placebo (COVID-19 [9]; hospitalized COVID-19 patients): improves lung opacities
- symptom resolution and laboratory improvement (COVID-19 [10]): striking symptom resolution and laboratory improvement within twenty-four hours
- survival (COVID-19 [11]): no difference in survival
- androgen receptor expression and activity (androgen receptor): lowers androgen receptor expression and activity
- mortality, subgroup analysis (COVID-19 [7]; meta-analysis of RCTs): significantly reduce mortality
- 30-day hospitalization rate (COVID-19 [12]): about 2%
- reduction of the risk of hospitalization compared to usual care (COVID-19 [12]): more than 90%
- benefit vs standard-of-care which includes steroids (COVID-19 [13]): showed benefit
- expression of ACE2 (ACE2): lowers the expression of ACE2

Compound: CC(C)(C)NC(=O)[C@H]1CC[C@H]2[C@@H]3CC[C@H]4NC(=O)C=C[C@]4(C)[C@H]3CC[C@]12C [Finasteride]
- half-life [3]: six
- peripheral capillary oxygen saturation (COVID-19 [14]): clinically and statistically significant improvement

Compound: COCCCC/C(=N\OCCN)c1ccc(C(F)(F)F)cc1 [fluvoxamine]
- anti-sepsis activity (sepsis): anti-sepsis activity

Compound: CC(=O)S[C@@H]1CC2=CC(=O)CC[C@]2(C)[C@H]2CC[C@@]3(C)[C@@H](CC[C@@]34CCC(=O)O4)[C@H]12 [spironolactone]
- expression of ACE2 [1]: decrease the expression
- expression of TMPRSS2 (TMPRSS2 [4]): decrease the expression
